These results are taken from patent US12447153B2, “HER2 mutation inhibitors” (Array BioPharma Inc., priority 2021, dated 2025).

One series deals with EGFR wild type (EGFR WT) (Homo sapiens (Human), UniProt P00533). Nature of the series: Cellular Phosphorylation Assay, Assay 5 (EGF-stimulated EGFR phosphorylation, NIH 3T3 cells). The class given is cell-based.
Another series has as its target ErbB2 WT (Homo sapiens (Human), UniProt P04626). Nature of the series: ErbB Enzyme Assay (HTRF KinEASE-TK), Assay 2. The class given is biochemical. For orientation: Time-resolved FRET reads energy transfer from a long-lived donor to a nearby acceptor.
In a further series the target is EGFR (Homo sapiens (Human), UniProt P00533). Briefly: ErbB Enzyme Assay (HTRF KinEASE-TK), Assay 3. The class given is biochemical.
In the next series the target is BCRP (Homo sapiens (Human), UniProt Q9UNQ0). Briefly: BCRP MDCKII efflux assay (Assay 7). The class given is in vitro ADME. Conditions: dog; efflux ratio Papp(B-A)/Papp(A-B), BCRP MDCKII cells; read-out: Assay 7 Pe Ratio. How it is done:
Assay conditions included with and without the BCRP-specific inhibitor, KO143, at a concentration of 0.3 μM to ascertain the contribution of BCRP to the efflux value of the test compound.
Final organic concentration in the assay was 1%.

Series [1] addresses ErbB2 with Exon 20 YVMA insertion (HER2-YVMA) (Homo sapiens (Human), UniProt P04626, INS775YVMA). Nature of the series: Cellular Phosphorylation Assay, Assay 4 (constitutive ErbB2 phosphorylation, NIH 3T3 cells). The class given is cell-based.
[2] abbreviates: EGF-stimulated EGFR WT phosphorylation.
Where [3] appears, read: cellular EGFR WT phosphorylation, EGF-stimulated.
[4] abbreviates: cellular ErbB2 YVMA phosphorylation.

Chain of EGFR wild type (EGFR WT) (P00533 25-1210): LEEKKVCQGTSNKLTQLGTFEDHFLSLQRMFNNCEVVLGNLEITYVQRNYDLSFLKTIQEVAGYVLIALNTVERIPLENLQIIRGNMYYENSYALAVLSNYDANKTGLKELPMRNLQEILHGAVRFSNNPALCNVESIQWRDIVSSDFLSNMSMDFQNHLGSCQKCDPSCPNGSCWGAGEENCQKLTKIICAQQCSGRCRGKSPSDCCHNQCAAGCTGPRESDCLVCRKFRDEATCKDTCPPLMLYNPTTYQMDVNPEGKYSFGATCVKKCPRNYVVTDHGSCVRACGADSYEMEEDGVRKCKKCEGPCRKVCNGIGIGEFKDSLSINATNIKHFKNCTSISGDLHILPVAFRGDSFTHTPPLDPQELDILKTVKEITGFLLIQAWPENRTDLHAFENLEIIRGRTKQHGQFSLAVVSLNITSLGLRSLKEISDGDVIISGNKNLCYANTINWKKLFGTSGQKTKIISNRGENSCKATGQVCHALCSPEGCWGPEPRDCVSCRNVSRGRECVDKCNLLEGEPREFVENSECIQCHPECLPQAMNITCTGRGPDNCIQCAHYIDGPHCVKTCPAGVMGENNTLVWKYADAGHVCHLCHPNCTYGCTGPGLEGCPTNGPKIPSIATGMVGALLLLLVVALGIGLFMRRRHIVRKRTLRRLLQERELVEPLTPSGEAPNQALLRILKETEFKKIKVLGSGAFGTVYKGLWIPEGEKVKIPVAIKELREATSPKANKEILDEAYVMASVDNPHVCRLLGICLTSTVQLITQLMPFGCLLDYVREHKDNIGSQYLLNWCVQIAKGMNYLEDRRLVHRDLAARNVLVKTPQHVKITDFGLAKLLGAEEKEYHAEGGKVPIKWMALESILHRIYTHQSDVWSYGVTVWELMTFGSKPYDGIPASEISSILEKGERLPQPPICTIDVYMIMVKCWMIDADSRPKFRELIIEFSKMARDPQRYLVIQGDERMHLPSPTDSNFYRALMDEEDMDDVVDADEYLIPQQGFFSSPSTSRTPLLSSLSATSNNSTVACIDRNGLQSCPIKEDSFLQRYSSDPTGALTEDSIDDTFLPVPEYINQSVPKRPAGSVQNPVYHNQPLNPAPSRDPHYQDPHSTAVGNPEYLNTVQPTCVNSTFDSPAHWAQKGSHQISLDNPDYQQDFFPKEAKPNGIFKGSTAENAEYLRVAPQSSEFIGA
Chain of EGFR (P00533 25-1210): as above
Chain of BCRP (Q9UNQ0 whole entry): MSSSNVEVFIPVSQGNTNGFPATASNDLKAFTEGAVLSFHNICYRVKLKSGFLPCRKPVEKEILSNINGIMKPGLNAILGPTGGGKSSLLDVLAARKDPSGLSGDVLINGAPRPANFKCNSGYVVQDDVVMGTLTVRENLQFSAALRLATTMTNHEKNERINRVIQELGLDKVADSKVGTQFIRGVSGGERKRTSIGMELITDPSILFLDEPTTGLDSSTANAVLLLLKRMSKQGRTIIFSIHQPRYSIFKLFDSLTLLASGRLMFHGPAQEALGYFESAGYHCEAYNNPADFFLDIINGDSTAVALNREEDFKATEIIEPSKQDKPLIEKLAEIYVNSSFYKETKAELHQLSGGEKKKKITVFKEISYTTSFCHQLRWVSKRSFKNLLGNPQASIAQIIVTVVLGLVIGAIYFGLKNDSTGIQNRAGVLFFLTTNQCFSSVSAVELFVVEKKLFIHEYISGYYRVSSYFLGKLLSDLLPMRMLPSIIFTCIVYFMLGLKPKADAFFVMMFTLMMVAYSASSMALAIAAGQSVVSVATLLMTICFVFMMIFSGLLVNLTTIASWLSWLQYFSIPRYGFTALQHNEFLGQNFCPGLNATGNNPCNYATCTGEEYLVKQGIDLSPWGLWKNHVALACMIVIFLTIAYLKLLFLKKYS
Chain of ErbB2 WT (P04626 23-1255): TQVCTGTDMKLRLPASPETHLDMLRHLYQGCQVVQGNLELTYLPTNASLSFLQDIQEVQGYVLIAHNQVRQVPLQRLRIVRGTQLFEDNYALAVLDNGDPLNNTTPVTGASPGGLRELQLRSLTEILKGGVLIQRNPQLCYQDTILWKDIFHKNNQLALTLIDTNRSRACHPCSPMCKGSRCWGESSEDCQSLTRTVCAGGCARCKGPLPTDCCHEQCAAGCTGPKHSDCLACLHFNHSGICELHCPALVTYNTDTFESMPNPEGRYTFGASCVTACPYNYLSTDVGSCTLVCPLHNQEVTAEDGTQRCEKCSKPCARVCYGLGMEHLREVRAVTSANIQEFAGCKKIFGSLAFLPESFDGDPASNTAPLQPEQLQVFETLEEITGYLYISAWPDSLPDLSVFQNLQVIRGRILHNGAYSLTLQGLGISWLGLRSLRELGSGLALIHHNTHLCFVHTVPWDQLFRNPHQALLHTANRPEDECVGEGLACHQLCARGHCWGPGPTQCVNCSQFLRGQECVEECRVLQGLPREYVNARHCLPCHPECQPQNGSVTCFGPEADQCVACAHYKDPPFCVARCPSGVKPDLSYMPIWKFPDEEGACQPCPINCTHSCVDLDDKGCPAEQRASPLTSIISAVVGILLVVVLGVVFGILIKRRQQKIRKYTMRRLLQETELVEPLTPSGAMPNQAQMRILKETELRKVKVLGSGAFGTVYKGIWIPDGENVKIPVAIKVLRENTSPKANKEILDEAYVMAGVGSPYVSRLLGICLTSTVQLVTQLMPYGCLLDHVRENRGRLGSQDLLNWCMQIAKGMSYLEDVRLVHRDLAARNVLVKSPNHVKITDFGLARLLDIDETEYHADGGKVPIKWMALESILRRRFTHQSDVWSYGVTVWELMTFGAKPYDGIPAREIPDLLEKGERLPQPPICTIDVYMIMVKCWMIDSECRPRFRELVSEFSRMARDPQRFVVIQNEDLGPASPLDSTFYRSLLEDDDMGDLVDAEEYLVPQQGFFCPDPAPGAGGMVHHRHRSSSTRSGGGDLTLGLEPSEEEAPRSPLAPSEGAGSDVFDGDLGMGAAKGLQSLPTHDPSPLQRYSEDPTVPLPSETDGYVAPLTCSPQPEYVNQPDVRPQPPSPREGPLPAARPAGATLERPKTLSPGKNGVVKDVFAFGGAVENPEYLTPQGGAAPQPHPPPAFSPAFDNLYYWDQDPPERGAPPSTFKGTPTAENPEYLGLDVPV

Consider `C=CC(=O)N1[C@@H]2CC[C@H]1C[C@@H](c1ccc3ncnc(Nc4ccc(Oc5cnc6c(c5)ncn6C)c(C)c4)c3n1)C2` [Example 219, 1-((1R,3r,5S)-3-(4-((3-methyl-4-((3-methyl-3H-imidazo[4,5-b]pyridin-6-yl)oxy)phenyl)amino)pyrido[3,2-d]pyrimidin-6-yl)-8-azabicyclo[3.2.1]octan-8-yl)prop-2-en-1-one], for which the IC50 (as a rule, the concentration at which inhibition is half-maximal) is at least 5000 nM at EGFR wild type (EGFR WT) (setting [2]), 111 nM against ErbB2 WT (ErbB2 WT enzyme), 3660 nM on EGFR (EGFR enzyme) and 20.1 nM in series [1] (ErbB2 YVMA phosphorylation). In addition, the efflux ratio at 2 h, 1 µM on BCRP came out at 9.3.

For `C=CC(=O)N1C[C@H]2C[C@@H]1CN(c1ccc3ncnc(Nc4cc(C)c(Oc5cnc6c(c5)ncn6C)cc4F)c3n1)C2` [Example 353], the IC50 on EGFR wild type (EGFR WT) (setting [3]) was at least 5000 nM; against ErbB2 WT (ErbB2 WT enzyme assay), 474 nM; on EGFR (EGFR enzyme assay), at least 10000 nM; in series [1] (setting [4]) it was 49.5 nM. For the same compound, at BCRP, the efflux ratio at 2 h, 1 µM was 17.2.

Consider `C=CC(=O)N1C2CC1CN(c1ccc3ncnc(Nc4ccc(Oc5ccn6ncnc6c5)c(C)c4F)c3n1)C2` [Example 47, 1-(3-(4-((4-([1,2,4]triazolo[1,5-a]pyridin-7-yloxy)-2-fluoro-3-methylphenyl)amino)pyrido[3,2-d]pyrimidin-6-yl)-3,6-diazabicyclo[3.1.1]heptan-6-yl)prop-2-en-1-one], for which the IC50 against EGFR wild type (EGFR WT) (setting [2]) stood at 2130 nM; against ErbB2 WT (ErbB2 WT enzyme) it was 60.9 nM; against EGFR (EGFR enzyme), 3720 nM; in series [1] (ErbB2 YVMA phosphorylation), 13.7 nM. Further, at BCRP, the efflux ratio at 2 h, 1 µM came out at 9.6.

In the case of `C=CC(=O)N1CCN(c2ccc3ncnc(Nc4ccc(Oc5cc(F)c6c(c5)ncn6C)c(C)c4)c3n2)CC1` [Example 276], the IC50 stood at 302 nM against EGFR wild type (EGFR WT) (setting [3]), 10 nM against ErbB2 WT (ErbB2 WT enzyme assay), 350 nM at EGFR (EGFR enzyme assay) and 6.7 nM in series [1] (setting [4]). Also, at BCRP, the efflux ratio at 2 h, 1 µM is 25.2.

With `C=CC(=O)N(C)[C@H]1CCN(c2ccc3ncnc(Nc4cc(C)c(Oc5ccn6ncnc6c5)cc4F)c3n2)C1` [Example 351], the IC50 against EGFR wild type (EGFR WT) (setting [3]) was at least 5000 nM; against ErbB2 WT (ErbB2 WT enzyme assay), 66.4 nM; against EGFR (EGFR enzyme assay), 2860 nM; in series [1] (setting [4]) it was 31 nM. On BCRP, the efflux ratio at 2 h, 1 µM worked out at 6.4.

On to `C=CC(=O)N1C[C@H]2CN(c3ccc4ncnc(Nc5ccc(Oc6ccc7c(c6)ncn7C)c(C)c5)c4n3)C[C@H]21` [Example 116, 1-((1R,5S)-3-(4-((3-methyl-4-((1-methyl-1H-benzo[d]imidazol-5-yl)oxy)phenyl)amino)pyrido[3,2-d]pyrimidin-6-yl)-3,6-diazabicyclo[3.2.0]heptan-6-yl)prop-2-en-1-one], for which the IC50 against EGFR wild type (EGFR WT) (setting [2]) was determined as 1580 nM; against ErbB2 WT (ErbB2 WT enzyme), 52.3 nM; against EGFR (EGFR enzyme), 2580 nM; in series [1] (ErbB2 YVMA phosphorylation) it was 10.2 nM. Besides, on BCRP, the efflux ratio at 2 h, 1 µM stood at 22.4.

Regarding `C=CC(=O)N1C[C@H]2CC[C@@H]1C[C@@H]2c1ccc2ncnc(Nc3cc(C)c(Oc4cnc5c(c4)ncn5C)cc3F)c2n1` [Example 420], the IC50 against EGFR wild type (EGFR WT) (setting [3]) was at least 5000 nM; against ErbB2 WT (ErbB2 WT enzyme assay) it was 289 nM; against EGFR (EGFR enzyme assay), at least 10000 nM; in series [1] (setting [4]) it was 33.8 nM. Also, the efflux ratio at 2 h, 1 µM at BCRP was 2.5.

With `C=CC(=O)N1C[C@H]2C[C@@H]1CN2c1ccc2ncnc(Nc3ccc(Oc4ccc5c(c4)ncn5C)c(C)c3F)c2n1` [Example 83, 1-((1R,4R)-5-(4-((2-fluoro-3-methyl-4-((1-methyl-1H-benzo[d]imidazol-5-yl)oxy)phenyl)amino)pyrido[3,2-d]pyrimidin-6-yl)-2,5-diazabicyclo[2.2.1]heptan-2-yl)prop-2-en-1-one], the IC50 is at least 5000 nM against EGFR wild type (EGFR WT) (setting [2]), 81.5 nM at ErbB2 WT (ErbB2 WT enzyme), 5580 nM against EGFR (EGFR enzyme) and 9.6 nM in series [1] (ErbB2 YVMA phosphorylation). Moreover, the efflux ratio at 2 h, 1 µM at BCRP was 6.3.

On to `C=CC(=O)N1C[C@H]2CC[C@@H]1CN2c1ccc2ncnc(Nc3ccc(Oc4cnc5c(c4)ncn5C)c(C)c3F)c2n1` [Example 236, 1-((1R,4R)-5-(4-((2-fluoro-3-methyl-4-((3-methyl-3H-imidazo[4,5-b]pyridin-6-yl)oxy)phenyl)amino)pyrido[3,2-d]pyrimidin-6-yl)-2,5-diazabicyclo[2.2.2]octan-2-yl)prop-2-en-1-one], for which the IC50 against EGFR wild type (EGFR WT) (setting [2]) is at least 5000 nM; at ErbB2 WT (ErbB2 WT enzyme), 1170 nM; against EGFR (EGFR enzyme) it was at least 10000 nM; in series [1] (ErbB2 YVMA phosphorylation), 24.6 nM. On BCRP, the efflux ratio at 2 h, 1 µM was found to be 6.8.

As for `C=CC(=O)N1CC(Sc2ccc3ncnc(Nc4ccc(Oc5ccn6ncnc6c5)c(C)c4F)c3n2)C1` [Example 63, 1-(3-((4-((4-([1,2,4]triazolo[1,5-a]pyridin-7-yloxy)-2-fluoro-3-methylphenyl)amino)pyrido[3,2-d]pyrimidin-6-yl)thio)azetidin-1-yl)prop-2-en-1-one], the IC50 was found to be 426 nM at EGFR wild type (EGFR WT) (setting [2]), 31.4 nM against ErbB2 WT (ErbB2 WT enzyme), 508 nM against EGFR (EGFR enzyme) and 19.5 nM in series [1] (ErbB2 YVMA phosphorylation). Moreover, on BCRP, the efflux ratio at 2 h, 1 µM turned out to be 3.8.

`C=CC(=O)N1CCC(c2ccc3ncnc(Nc4ccc(Oc5ccc6c(c5)ncn6C)c(C)c4)c3n2)C1` (racemic) [Example 120, rac-(R)-1-(3-(4-((3-methyl-4-((1-methyl-1H-benzo[d]imidazol-5-yl)oxy)phenyl)amino)pyrido[3,2-d]pyrimidin-6-yl)pyrrolidin-1-yl)prop-2-en-1-one]: the IC50 is at least 5000 nM against EGFR wild type (EGFR WT) (setting [2]), 42 nM against ErbB2 WT (ErbB2 WT enzyme), 7270 nM on EGFR (EGFR enzyme) and 8.4 nM in series [1] (ErbB2 YVMA phosphorylation). Further, on BCRP, the efflux ratio at 2 h, 1 µM is 15.8.

Turning to `C=CC(=O)N1CC[C@@H](c2ccc3ncnc(Nc4ccc(Oc5ccc6c(c5)ncn6C)c(C)c4F)c3n2)C1` (racemic) [Example 131, rac-(R)-1-(3-(4-((2-fluoro-3-methyl-4-((1-methyl-1H-benzo[d]imidazol-5-yl)oxy)phenyl)amino)pyrido[3,2-d]pyrimidin-6-yl)pyrrolidin-1-yl)prop-2-en-1-one], the IC50 against EGFR wild type (EGFR WT) (setting [2]) is 4760 nM; at ErbB2 WT (ErbB2 WT enzyme), 55.9 nM; against EGFR (EGFR enzyme) it was 2160 nM; in series [1] (ErbB2 YVMA phosphorylation), 9.6 nM. Also, the efflux ratio at 2 h, 1 µM on BCRP was determined as 6.4.

With `C=CC(=O)N1CCN(c2ccc3ncnc(Nc4cc(C)c(Oc5cnc6c(c5)ncn6C)cc4F)c3n2)CC12CC2` [Example 354], the IC50 was at least 5000 nM against EGFR wild type (EGFR WT) (setting [3]), 31.6 nM at ErbB2 WT (ErbB2 WT enzyme assay), at least 10000 nM against EGFR (EGFR enzyme assay) and 8.8 nM in series [1] (setting [4]). For the same compound, at BCRP, the efflux ratio at 2 h, 1 µM was 13.4.

Regarding `C=CC(=O)N1C[C@H]2C[C@@H]1[C@H](c1ccc3ncnc(Nc4ccc(Oc5ccn6ncnc6c5)c(C)c4)c3n1)C2` [Example 405], the IC50 against EGFR wild type (EGFR WT) (setting [3]) worked out at 4550 nM; against ErbB2 WT (ErbB2 WT enzyme assay), 19.5 nM; at EGFR (EGFR enzyme assay), 1640 nM; in series [1] (setting [4]), 17.2 nM. For the same compound, the efflux ratio at 2 h, 1 µM at BCRP came out at 13.7.

As to `C=CC(=O)N1CCN(c2ccc3ncnc(Nc4ccc(Oc5ccn6ncnc6c5)c(C)c4F)c3n2)C[C@H]1COC` [Example 358], the half-inhibitory concentration (IC50) at EGFR wild type (EGFR WT) (setting [3]) came out at 83.2 nM; at ErbB2 WT (ErbB2 WT enzyme assay), 10 nM; at EGFR (EGFR enzyme assay), 237 nM; in series [1] (setting [4]), 2.9 nM. In addition, the efflux ratio at 2 h, 1 µM on BCRP turned out to be 8.5.

Consider `C=CC(=O)N1C2CCC1CN(c1ccc3ncnc(Nc4ccc(Oc5ccn6ncnc6c5)c(C)c4F)c3n1)C2` [Example 444], for which the IC50 against EGFR wild type (EGFR WT) (setting [3]) came to 352 nM; against ErbB2 WT (ErbB2 WT enzyme assay), 12 nM; against EGFR (EGFR enzyme assay) it was 379 nM; in series [1] (setting [4]), 5.9 nM. For the same compound, the efflux ratio at 2 h, 1 µM at BCRP was found to be 9.

As to `C=CC(=O)N1CCN(c2ccc3ncnc(Nc4ccc(Oc5cc(F)c6c(c5)ncn6C)c(C)c4)c3n2)CC1(C)C` [Example 277], the IC50 against EGFR wild type (EGFR WT) (setting [3]) was found to be 975 nM; against ErbB2 WT (ErbB2 WT enzyme assay) it was 23.7 nM; against EGFR (EGFR enzyme assay), 992 nM; in series [1] (setting [4]), 12.5 nM. For the same compound, the efflux ratio at 2 h, 1 µM on BCRP worked out at 7.3.

Consider `C=CC(=O)N1CCN(c2ccc3ncnc(Nc4ccc(Oc5cc(F)c6c(c5)ncn6C)c(C)c4)c3n2)C[C@H]1CC` [Example 282], for which the IC50 against EGFR wild type (EGFR WT) (setting [3]) stood at 1230 nM; against ErbB2 WT (ErbB2 WT enzyme assay), 12.9 nM; at EGFR (EGFR enzyme assay), 2350 nM; in series [1] (setting [4]), 14.4 nM. In addition, on BCRP, the efflux ratio at 2 h, 1 µM was 7.6.

For `C=CC(=O)N1CCN(c2ccc3ncnc(Nc4ccc(Oc5ccc6c(c5)ncn6C)c(Cl)c4)c3n2)CC1` [Example 72, 1-(4-(4-((3-chloro-4-((1-methyl-1H-benzo[d]imidazol-5-yl)oxy)phenyl)amino)pyrido[3,2-d]pyrimidin-6-yl)piperazin-1-yl)prop-2-en-1-one], the IC50 at EGFR wild type (EGFR WT) (setting [2]) was found to be 511 nM; against ErbB2 WT (ErbB2 WT enzyme), 8.7 nM; at EGFR (EGFR enzyme), 880 nM; in series [1] (ErbB2 YVMA phosphorylation), 4.7 nM. In addition, the efflux ratio at 2 h, 1 µM on BCRP is 15.4.

Consider `C=CC(=O)N1CCCN(c2ccc3ncnc(Nc4ccc(Oc5ccc6c(c5)ncn6C)c(C)c4)c3n2)CC1` [Example 108, 1-(4-(4-((3-methyl-4-((1-methyl-1H-benzo[d]imidazol-5-yl)oxy)phenyl)amino)pyrido[3,2-d]pyrimidin-6-yl)-1,4-diazepan-1-yl)prop-2-en-1-one], for which the IC50 against EGFR wild type (EGFR WT) (setting [2]) is at least 5000 nM; on ErbB2 WT (ErbB2 WT enzyme), 29.4 nM; at EGFR (EGFR enzyme), at least 10000 nM; in series [1] (ErbB2 YVMA phosphorylation), 7.4 nM. Also, at BCRP, the efflux ratio at 2 h, 1 µM worked out at 30.1.
